For series [1], the system named is HIV-1 (HTLVIIIB). The series is described as follows: microbe, parasite or virus in culture. Format: cell-based. Conditions: up to 120 μM, H9 cells.
The test system of series [2] is glutathione levels (GSH) in H9 cells. The series is described as follows: Elevation of glutathione (GSH) levels in H9 cells. The series is classed as cell-based, human. To be noted: for fold induction at 30 µM / fold induction at 60 µM / fold induction at 120 µM: Homo sapiens, read-out: Glutathione levels, treated to control value. As to the method:
(§1) Five ml of medium was added to T-25 flasks and DMSO containing tests compounds were added to a final concentration of 0.1%. Control medium contained 0.1% DMSO. After the drugs were added, 5×10^6 cells in 5 ml of medium was added to each T-25 flask. The cells were grown at 37° C. in a humidified incubator supplemented with 5% CO2 until harvested (N=3 flasks/group). At the indicated times, cells were isolated by centrifugation (500×g×10 min) and were washed three times by adding 10 ml of ice-cold DPBS, mixing, and centrifuging in a refrigerated centrifuge (500×g×10 min) to isolate the cell pellets. The cells were then lysed by the addition of 400 μl of ice-cold DPBS containing 0.5% Triton X-100 and vortexing. Supernatants were then isolated by centrifuging the lysates (5000×g×20 min). Samples were kept on ice or refrigerated until the reagents for QR or GSH spectrophotometric assays were added to the aliquoted microtiter plates. QR levels were determined by aliquoting 10 μl/well of supernatant in a 96-well plate and measuring the activity by the assay described by Prochaska and Santamaria (20) except that the final NADP^+ concentration was 200 μM (21). Samples were assayed in quadruplicate, and dicoumarol inhibitable-rates (which generally represented less than 5% of the total rate) were also measured. Spectrophotometric blanks contained 10 μl of DPBS with 0.5% Triton X-100. For the GSH assay, 300 μl of sample was placed in a centricon-10microconcentrator and centrifuged (5000×g×45 min) until enough ultrafiltrate could be collected. 50 μl/well of sample in quadruplicate was placed in a 96 well "half-area" plate after which 20 μl of 1 mM Ellman's reagent dissolved in DPBS was added. The yellow color (22) developed within 5 min and was scanned with a uvmax microtiter scanner (Palo Alto, Calif.) at 405 nm. Spectrophotometric blanks contained 50 μl DPBS with 0.5% Triton X-100 and 20 μl of 1 mM Ellman's reagent in DPBS. The optical densities of the specimens were calibrated to a GSH standard curve. Protein contents were determined in 3 ml cuvettes by the Bradford method (23). The protein content in the ultrafiltrates employed for GSH determinations were negligible (<0.01 mg/ml).

Series [3] has as its target T1, HIV-1 reverse transcriptase (RT) (Human immunodeficiency virus type 1 group M subtype B, UniProt P04585).
T1 construct: Recombinant HIV-1 reverse transcriptase (RT) was obtained from Worthington (Freehold, N.J.); purchased Worthington (Freehold, N.J.)
Description: Inhibition of recombinant HIV-1 reverse transcriptase (TTP incorporation). To be noted: poly(A):oligo(dT) and TTP as substrates. The series is classed as biochemical. As to the method:
Reverse transcriptase assays were performed as described by Flexner, et al. (25) using recombinant HIV-1 RT as the source of enzyme. Dilutions and assay were carried out in 96-well "half-area" plates. The enzyme with various concentrations of test compounds were dissolved in DPBS containing 1% w/v BSA and diluted in 50 μl volumes; 10 μl aliquots in triplicate were transferred to another plate for the enzyme assay. The reactions were initiated by the addition of 25 μl/well of buffer containing 50 mM Tris.cndot.Cl (pH 8.0), 75 mM KCl, 1 mM dithiothreitol, 2 mM MgCl2, 5 μg/ml poly(A), 2.5 μg/ml oligo (dT), 10 μCi/ml ^32 p TTP with or without unlabeled TTP. […] TTP incorporation was measured by spotting 20 μl of the reaction cocktail onto DE81 paper, washing the paper with 4×5 min washes of 300 mM NaCl and 30 mM sodium citrate (pH 7.0), drying the paper, and counting the paper by liquid scintillation counting. The assays performed with oltipraz and 1,2-dithiole-3-thione contained 0.29% final concentration DMSO. This concentration of DMSO had no effect on RT activity.

Series [4] deals with quinone reductase (QR) in H9 cells. The series is described as follows: Elevation of quinone reductase (QR) in H9 cells. Conditions: for fold induction at 30 µM / fold induction at 60 µM / fold induction at 120 µM: Homo sapiens, read-out: Quinone reductase, treated to control value. The series is classed as cell-based, human. Here is the method: as §1
We confirmed that the induction of QR in microtiter wells mirrored our results in T-25 flasks by using the method of Prochaska and Santamaria (20). Medium (100 μl) containing 0.1% final concentration DMSO was added to all wells except columns designated to contain the highest concentration of drug or spectrophotometric blanks in duplicate sets of U-bottomed microtiter plates. 200 μl of media containing drug (final DMSO concentration=0.1%) was added to the empty column of wells and then diluted in 2-fold serial dilutions across. After the serial dilutions were performed, 100 μl of media containing 1×10^6 cells/ml was added to each well, and the plates were placed in a 37° C. incubator for 48 h. One set of plates was assayed as described (21) for QR activity, the other was assayed for cell number by the method for Alley et al. (24).

Another series deals with H9 cells. Description: Cytotoxicity in H9 cells by trypan blue exclusion. To be noted: up to 30 μM (tert-butylhydroquinone), 120 μM (1,2-dithiole-3-thione), 60 μM (dimethyl fumarate). The series is classed as cell-based, human.
Series [5] deals with HIV-1. To be noted: cited from earlier work.
In series [6] the test system is HIV-1 (HTLVIIIB). The series is described as follows: microbe, parasite or virus in culture. Conditions: Human immunodeficiency virus 1, H9, read-out: median dose (p24 release). Here is the method:
The effects for test compounds were assessed by means of both IFA and p24 release. In general, the following protocol was followed: H9 cells were infected with HIV-1 at 1000 50% infective doses of viruses/10^6 cells. Virus was allowed to adsorb for 1 h, after which unadsorbed virus was removed by centrifugation. The cells were resuspended and washed twice with PBS (without Ca^+2 or Mg^+2 salts) and centrifuged to collect the cell pellet (150×g×10 min). Cells were suspended in fresh medium and added at a final cell density of 500,000 cells/ml in a 96-well plate with media containing 0.1% DMSO and various concentrations of test compounds. The cells were re-fed freshly prepared media containing 0.1% DMSO±test compounds on day four (for preinduction experiments, cells were exposed to inducers on days -2, 0, and +4 days relative to infection). After seven days, cells were examined for cytoxicity by trypan blue exclusion, the degree of infection with HIV-1 by IFA, and the supernatants were assayed for p24 levels according to the manufacturer's directions. The IFA procedure can be summarized as follows: The cells were washed twice in PBS and were placed in 5 mm 12-well slides. After allowing the slides to dry and fixing the cells with acetone for 5 min, 10 μl of HIV-1 positive serum in 40 μl PBS was added to each well and allowed to incubate at 37° C. for 30 min. After incubation, the slides were washed twice with PBS and incubated at 37° C. for 30 min with 2.5 μl goat anti-human IgG-fluorescein isothiocyanate conjugate in 50 μl PBS containing 0.01% Evans Blue per well. The slides were then washed twice with PBS, dried, and mounted with 50% glycerol in PBS, and scored for the percentage of fluorescent cells by fluorescent microscopy.
Statistical significance for GSH and QR levels were established by the unpaired t test using the INSTAT statistics program (Graphpad, San Diego, Calif.). The Ki of oltipraz was determined by performing Segal transformations (26) of Dixon plots. […] Calculations were performed on spreadsheets using Lotus 1-2-3 software (Cambridge, Mass.).

The test system of series [7] is HIV-1. Conditions: HIV-1 infected patients, pharmacokinetics study; cited from earlier work.
[8] abbreviates: dose- and time-dependent, H9 cells.

Each structure is given as a SMILES string. Like-named read-outs stand apart in the source and are kept apart here.

Take `S=c1ccss1` [1,2-dithiole-3-thione]: the “inhibition of HIV-1 replication” value with HIV-1 (HTLVIIIB) [1] was “inactive”. Moreover, the “Glutathione Levels” value was 53.5 ± 7.1 nmol/mg in series [2] (48 h, 30 μM); 57.5 ± 1.3 nmol/mg in series [2] (48 h, 60 μM); 74.9 ± 3.6 nmol/mg in series [2] (48 h, 120 μM); 59.4 ± 1.4 nmol/mg in series [2] (96 h, 30 μM); 65.0 ± 2.1 nmol/mg in series [2] (96 h, 60 μM); 109 ± 28 nmol/mg in series [2] (96 h, 120 μM). Besides, the fold induction at 30 µM in series [2] (H9, 48 h) was determined as 1.17; in series [2] (H9, 96 h), 1.17; in series [4] (H9, 48 h), 1.61; in series [4] (H9, 96 h), 1.17. In addition, the fold induction at 60 µM in series [2] (H9, 48 h) is 1.26; in series [2] (H9, 96 h), 1.71; in series [4] (H9, 48 h) it was 1.67; in series [4] (H9, 96 h), 1.71. The fold induction at 120 µM came out at 1.63 in series [2] (H9, 48 h); 2.15 in series [2] (H9, 96 h); 2.07 in series [4] (H9, 48 h); 2.15 in series [4] (H9, 96 h). In addition, the “elevation of GSH” value in series [2] (setting [8]) is “able to elevate both GSH and QR levels”. In addition, in series [3], the “inhibition of recombinant HIV-1 reverse transcriptase” value is “inactive”. Moreover, the “Quinone Reductase Specific Activity” value in series [4] (48 h, 30 μM) was determined as 232 ± 16 nmol/min/mg; in series [4] (48 h, 60 μM), 244 ± 12.1 nmol/min/mg; in series [4] (48 h, 120 μM) it was 299 ± 11 nmol/min/mg; in series [4] (96 h, 30 μM) it was 59.4 ± 1.4 nmol/min/mg; in series [4] (96 h, 60 μM), 65.0 ± 2.1 nmol/min/mg; in series [4] (96 h, 120 μM) it was 109 ± 28 nmol/min/mg. For the same compound, in series [4] (setting [8]), the “elevation of QR” value was “able to elevate both GSH and QR levels”. Further, the “cytotoxicity at optimal inductive doses” value with H9 cells is recorded as “non-cytotoxic”.

With `Cc1cn([C@H]2C[C@H](N=[N+]=[N-])[C@@H](CO)O2)c(=O)[nH]c1=O` [AZT, 3'-azido-3'-deoxythymidine], the “synergy with anti-HIV-1 drugs” value with HIV-1 [5] (in vitro, Kong et al.) is listed as “synergistic with anti-HIV-1 drugs such as phosphonoformate”. Further, in the series on HIV-1 (HTLVIIIB) [6], the IC50 stood at 45 nM.

As to `CC(=O)N[C@@H](CS)C(=O)O` [N-acetylcysteine], in the series on HIV-1 [7], the “effect on surrogate markers for HIV-1” value is given as “did not alter surrogate markers for HIV-1”. Further, the “inhibition of HIV-1 replication” value with HIV-1 [5] (cultured cells) is listed as “effectively inhibit the replication of HIV-1”.

(Values after patent publication US5691338A, “1,2-dithiole-3 thiones for the treatment of reverse transcriptase-dependent viral infections” (priority 1995, dated 1997).)
